Measurements as given in patent publication US20080312227A1, “Substituted Pyrido(2,3-D) Pyrimidine Derivatives Useful as Medicines for the Treatment of Autoimmune Disorders” (4 AZA BIOSCIENCE NV, priority 2005, published 2008).
Counter-ions that a name gives are not always drawn. Like-named read-outs stand apart in the source and are kept apart here.

Assays:
[1] = test system: mixed lymphocyte reaction (PBMC with irradiated allogeneic PBMC or RPMI1788 stimulator cells); test: Mixed lymphocyte reaction (MLR) assay; assay type: cell-based, human; conditions: read-out: MLR (IC50, lowest concentration giving 50% suppression of the MLR)
Method: Pyrido[2,3-d]pyrimidine derivatives were first dissolved (10 mM) in dimethyl-sulfoxide (hereinafter referred as DMSO) and further diluted in culture medium before use for the following in vitro experiments. The commercially available culture medium consisted of RPMI-1640+10% foetal calf serum (FCS). Some pyrido[2,3-d]pyrimidine derivatives described herein were tested in the following mixed lymphocyte reaction (MLR) assay.
Peripheral blood mononuclear cells (hereinafter referred as PBMC) were isolated from heparinized peripheral blood by density gradient centrifugation over Lymphoprep (Nycomed, Maorstua, Norway). Allogeneic PBMC or Eppstein-Barr Virus-transformed human B cells [commercially available under the trade name RPMI1788 (ATCC name CCL156)] which strongly express B7-1 and B7-2 antigens were used as stimulator cells after irradiation with 30 Gy. MLR was performed in triplicate wells. After 5 days incubation at 37° C., 1 μCi [^3H]-thymidine was added to each cup. After a further 16 hours incubation, cells were harvested and counted in a β-counter. Inhibition of proliferation by a compound described in some of the present examples was counted while using the formula: […]
wherein cpm is the thymidine count per minute. The MLR assay is regarded by those skilled in the art as an in vitro analogue of the transplant rejection since it is based on the recognition of allogeneic major histocompatibility antigens on the stimulator leukocytes, by responding lymphocytes.

[2] = test system: human TNF-α production by PBMC; test: TNF-α assay (LPS-stimulated PBMC, sandwich ELISA); assay type: cell-based; conditions: PBMC stimulated with LPS 1 μg/ml, 72 hours, read-out: TNF α (IC50 in the TNFα assay)
Method: (§1) Peripheral blood mononuclear cells (herein referred as PBMC), in response to stimulation by lipopolysaccharide (hereinafter LPS), a gram-negative bacterial endotoxin, produce various […], in particular human TNF-α. Inhibition of the activation of PBMC can therefore be measured by the level of suppression of the production of TNF-α by PBMC in response to stimulation by LPS.
Such inhibition measurement was performed as follows: PBMC were isolated from heparinized peripheral blood by density gradient centrifugation over Lymphoprep (commercially available from Nycomed, Norway). LPS was then added to the PMBC suspension in complete medium (10^6 cells/ml) at a final concentration of 1 μg/ml. The pyrido[3,2-d]pyrimidine derivative to be tested was added at different concentrations (0.1 μM, 1 μM and 10 μM) and the cells were incubated at 37° C. for 72 hours in 5% CO2. The supernatants were collected, then TNF-α concentrations were measured with respectively an anti-TNF-α antibody in a sandwich ELISA (Duo Set ELISA human TNFα, commercially available from R&D Systems, United Kingdom). The colorimetric reading of the ELISA was measured by a Multiskan RC plate reader (commercially available from ThermoLabsystems, Finland) at 450 nm (reference wavelength: 690 nm). Data analysis was performed with Ascent software 2.6. (also from ThermoLabsystems, Finland): a standard curve (recombinant human TNFα) was drawn and the amount (pg/ml) of each sample on the standard curve was determined.
The % suppression of human TNFα production by the pyrido[2,3-d]pyrimidine derivatives of the invention was calculated using the formula: […]

[3] = test system: human IL-1 β production by PBMC; test: IL-1 β assay (LPS-stimulated PBMC, sandwich ELISA); assay type: cell-based; conditions: PBMC stimulated with LPS 1 μg/ml, 72 hours, read-out: IC50 in the IL-1 β test (50% suppression of human IL-1 β)
Method: as §1, with “(LPS),” for “(hereinafter LPS),”, “IL-1 β.” for “TNF-α.”, “IL-1 β” for “TNF-α”
Such inhibition measurement was performed as follows: PBMC were isolated from heparinized peripheral blood by density gradient centrifugation over Lymphoprep (commercially available from Nycomed, Norway). LPS was then added to the PMBC suspension in complete medium (10^6 cells/ml) at a final concentration of 1 μg/ml. […] The supernatants were collected, then IL-1 β concentrations were measured with an anti-IL-1 β antibody in a sandwich ELISA. The calorimetric reading of the ELISA was measured by a Multiskan RC plate reader (commercially available from ThermoLabsystems, Finland) at 450 nm (reference wavelength: 690 nm). […] (also from ThermoLabsystems, Finland): a standard curve (recombinant human IL-1 β) was drawn and the amount (pg/ml) of each sample on the standard curve was determined.
The % suppression of human IL-1 β by the pyrido[2,3-d]pyrimidine derivatives of this invention was calculated using the formula: […]

[4] = Homo sapiens, RPMI-1788, 5 days incubation then 16 h [3H]-thymidine
[5] = 5 days incubation then 16 h [3H]-thymidine

Row | Compound | IC50 [1, 4] [nM] | IC50 ([2]; Homo sapiens) [nM] | IC50 [1, 5] [nM] | IC50 [2] [nM] | further results
1 | COc1ccc(-c2cnc3nc(N)nc(N4CCN(Cc5ccccc5)CC4)c3c2)cc1OC [Example 23, 2-amino-4-(4-benzylpiperazin-1-yl)-6-(3,4-dimethoxyphenyl)-pyrido[2,3-d]pyrimidine] | 7200 | 700 | – | – | –
2 | CCCNc1nc(N)nc2ncc(-c3ccc(OC)c(OC)c3)cc12 [Example 30, 2-amino-4-n-propylamino-6-(3,4-dimethoxyphenyl)pyrido[2,3-d]pyrimidine] | 5200 | 4000 | – | – | –
3 | COc1ccc(-c2cnc3nc(N)nc(NCCc4ccccc4)c3c2)cc1OC [Example 44, 2-amino-4-(phenylethylamino)-6-(3,4-dimethoxyphenyl)pyrido[2,3-d]pyrimidine] | 4300 | 4200 | – | – | –
4 | COc1ccc(-c2cnc3nc(N)nc(N4CCN(C(=O)OCc5ccccc5)CC4)c3c2)cc1OC [Example 15, 2-amino-6-(3,4-dimethoxyphenyl)-4-[(N-benzyloxycarbonyl)-piperazin-1-yl]-pyrido[2,3-d]pyrimidine] | – | – | 800 | 900 | IC50 [3]: 7000 nM
5 | COc1ccc(-c2cnc3nc(N)nc(NC(C)C)c3c2)cc1OC [Example 31, 2-amino-4-isopropylamino-6-(3,4-dimethoxyphenyl)pyrido[2,3-d]pyrimidine] | 5700 | 700 | – | – | –
6 | COc1ccc(-c2cnc3nc(N)nc(N4CCN(C(=O)COc5ccccc5)CC4)c3c2)cc1OC [Example 10, 2-amino-4-(N-phenoxyacetyl-N-piperazin-1-yl)-6-(3,4-dimethoxyphenyl)pyrido[2,3d]pyrimidine] | – | – | 300 | 1700 | –
7 | Cc1ccc(-c2cnc3nc(N)nc(OC(C)C)c3c2)cc1C [Example 38, 2-amino-4-isopropoxy-6-(3,4-dimethylphenyl)-pyrido[2,3-d]pyrimidine] | – | 900 | – | – | –
8 | COc1ccc(-c2cnc3nc(N)nc(OC(C)C)c3c2)cc1OC [Example 2, 2-amino-4-isopropoxy-6-(3,4-dimethoxyphenyl)-pyrido[2,3-d]pyrimidine] | 900 | 90 | – | – | –
9 | Cc1ccc(NC(=O)N2CCN(c3nc(N)nc4ncc(Br)cc34)CC2)cc1 [Example 7, 2-amino-4-[N-4-methylphenylcarbamoyl-piperazin-1-yl]-6-bromo-pyrido[2,3-d]pyrimidine] | – | – | 700 | – | –
10 | COc1ccc(-c2cnc3nc(N)nc(Nc4cccc(Br)c4)c3c2)cc1OC [Example 42, 2-amino-4-(3-bromo-anilino)-6-(3,4-dimethoxyphenyl)pyrido[2,3-d]pyrimidine] | 3300 | 3300 | – | – | IC50 ([3]; Homo sapiens): 7000 nM
11 | CC(C)Oc1nc(N)nc2ncc(-c3cccs3)cc12 [Example 21, 2-amino-4-isopropoxy-6-(2-thienyl)pyrido[2,3-d]pyrimidine] | – | 800 | – | – | –
12 | COc1ccc(-c2cnc3nc(N)nc(N4CCNCC4)c3c2)cc1OC [Example 22, 2-amino-4-(piperazin-1-yl)-6-(3,4-dimethoxyphenyl)-pyrido[2,3-d]pyrimidine] | – | 8100 | – | – | –
13 | COc1ccc(-c2cnc3nc(N)nc(OC4CCOCC4)c3c2)cc1OC [Example 33, 2-amino-4-(tetrahydro-2H-pyran-4-yloxy)-6-(3,4-dimethoxyphenyl)pyrido[2,3-d]pyrimidine] | 2400 | 600 | – | – | –
14 | CCC(C)Oc1nc(N)nc2ncc(-c3ccc(OC)c(OC)c3)cc12 (centres unmarked) [Example 36, 2-amino-4-(sec-butoxy)-6-(3,4-dimethoxyphenyl)-pyrido[2,3d]pyrimidine] | – | – | 2600 | 600 | –
15 | COc1ccc(-c2cnc3nc(N)nc(N4CCOCC4)c3c2)cc1OC [Example 4, 2-amino-4-morpholino-6-(3,4-dimethoxyphenyl)-pyrido[2,3-d]pyrimidine] | 4800 | 3200 | – | – | –
16 | COc1ccc(-c2cnc3nc(N)nc(N4CCCCC4)c3c2)cc1OC [Example 32, 2-amino-4-(1-piperidino)-6-(3,4-dimethoxyphenyl)pyrido[2,3-d]pyrimidine] | – | – | 1900 | 900 | –
17 | COc1ccc(-c2cnc3nc(N)nc(NCc4ccccc4)c3c2)cc1OC [Example 43, 2-amino-4-(benzylamino)-6-(3,4-dimethoxyphenyl)pyrido[2,3-d]pyrimidine] | 5000 | – | – | – | –
18 | 2-amino-6-(3,4-dimethoxyphenyl)-4-(4-N-methyl piperidinoxy)pyrido[2,3-d]pyrimidine [Example 34] | – | – | – | 6700 | –
19 | CCC(C)Oc1nc(N)nc2ncc(-c3ccc(OC)c(OC)c3)cc12 (centres unmarked) [Example 37, hydrochloride salt of 2-amino-4-(sec-butoxy)-6-(3,4-dimethoxyphenyl)-pyrido[2,3-d]pyrimidine] | – | – | 3200 | 500 | –
20 | COc1ccc(-c2cnc3nc(N)nc(N4CCN(C(=O)Nc5ccc(C)cc5)CC4)c3c2)cc1OC [Example 12, 2-amino-4-(N-4-methylphenylcarbamoyl-piperazin-1-yl]-6-(3,4-dimethoxyphenyl)pyrido[2,3-d]pyrimidine] | – | – | 400 | 4900 | –
21 | COc1ccc(-c2cnc3nc(N)nc(OC)c3c2)cc1OC [Example 35, 2-amino-4-methoxy-6-(3,4-dimethoxyphenyl)pyrido[2,3d]pyrimidine] | – | – | 6200 | 900 | –
